Several values for one entry are separate records, joined by “and”; a condition that tells them apart may be missing. Equal entries are not always repeated. Where two headings read alike, the source gives them in different places.

The nature of one data set: in vitro. The note with it: mouse, pH 7.4; for Extraction ratio / Microsomal stability (Mouse ER) / Remaining (*NCF = 60min) / Remaining (T = 60 min): 1 μM; for Microsomal stability (Mouse ER) / Remaining (*NCF = 60min) / Remaining (T = 60 min) / CLint scaled at 1 μM / half-life at 1 μM / microsomal CLint at 1 μM: microsomes; for Remaining (*NCF = 60min) / Remaining (T = 60 min): 1 h. As for the experimental part: 100 mM potassium phosphate buffer, pH 7.4. • 2. 10 mM MgCl2 • 3) Compound Dilution:
Intermediate solution was prepared by diluting 5 μL of compound or control stock solution (10 mM in DMSO) with DMSO (45 μL) and 1:1 Methanol/Water (450 μL) (concentration=100 μM, 45% MeOH). Working solution was prepared by diluting 50 μL of the intermediate solution with 450 μL of 100 mM potassium phosphate buffer, pH=7.4 (centration=10 μM, 4.5% MeOH). • 4) NADPH regenerating system (final Isocitric dehydrogenase concentration=1 unit/mL at incubation) comprised:
10 μL/well of compound working solution or control working solution was added to all plates (T0, T5, T10, T20, T30, T60, NCF60) except the matrix blank. 80 μL/well of microsome solution was added to every plate. The mixtures of microsome solution and compound were incubated at 37° C. for about 10 min. 10 μL/well of NADPH regenerating system (pre-warmed to 37° C.) was then added to every plate to start the reaction. […] For NCF60 (abbreviation of no co-factor) no NADPH regenerating system was added, but was replaced by 10 μL/well of potassium phosphate buffer (100 mM, pH 7.4); the resulting mixture was incubated at 37° C. for 1 h.
The reactions were then terminated with the stop solution (cold at 4° C.) containing 100 ng/mL Tolbutamide and 100 ng/mL Labetalol ([…]). The sampling plates were shaken for approximately 10 minutes, then were centrifuged at 4000 rpm for 20 min at 4° C. While centrifuging, 8 new 96 well plates were loaded with […] of HPLC grade water. 100 μL of supernatant was finally added to 300 μL of HPLC grade water and mixed for LC/MS/MS analysis.
The equation of first order kinetics was used to calculate T1/2 and CIint(mic): […]

For data set [1], the target named is T1, human neutrophil elastase (Homo sapiens (Human), UniProt P08246). The data set is described as follows: Elastase inhibition assay, purified human neutrophil elastase. Type of data set: biochemical. The note with it: for LipE: Purified NHE; for IC50: purified HNE, read-out: IC50. As for the experimental part:
Serially diluted compounds in DMSO were dispensed into a 384-well black opaque plate by Echo dispenser. 0.1 μg/mL human neutrophil elastase (EPC, Catalog# SE563, Owensville, Ms.) or human sputum diluted with assay buffer (100 mM HEPES, 500 mM NaCl, 0.02% Tween 20) was added into the 384-well plate, and was incubated with different compounds at different concentrations for 30 minutes at room temperature. The final concentration of DMSO in the reaction was 0.1%. […] Slope of fluorescence intensity vs. time representing the Vmax of enzyme activity was calculated with MARS software. % relative inhibition was calculated as: […]
(§1) IC50 was calculated based on the % relative inhibition curve using log(agonist) vs. response (three parameters) method with Prism software. All experiments were performed in triplicate for at least three independent times.

In data set [2] the target is T1, human neutrophil elastase. The description is as above. Type of data set: biochemical. The conditions noted are these: purified HNE.
Data set [3] concerns the target T1, human neutrophil elastase. As to the kind of experiment: Time dependence of elastase inhibition. Type of data set: biochemical. As for the experimental part:
The procedure for the elastase inhibition assay was followed with slight modifications. 0.1 μg/mL human neutrophil elastase was incubated with a range of concentrations of inhibitors for 5, 15, 30 and 60 minutes before substrate MeOSuc-AAPV-AMC of 100 μM final concentration was added. Enzyme kinetics were read on PheraSTAR plate reader and IC50 was calculated with the method described above.

Data set [4] addresses elastase in COPD patient sputum (Homo sapiens (Human), UniProt P08246). The data set is described as follows: Elastase inhibition assay in COPD patient sputum. Type of data set: biochemical. As for the experimental part:
(§2) Serially diluted compounds in DMSO were dispensed into a 384-well black opaque plate by Echo dispenser. 0.1 μg/mL human neutrophil elastase (EPC, Catalog# SE563, Owensville, Ms.) or human sputum diluted with assay buffer (100 mM HEPES, 500 mM NaCl, 0.02% Tween 20) was added into the 384-well plate, and was incubated with different compounds at different concentrations for 30 minutes at room temperature. The final concentration of DMSO in the reaction was 0.1%. Elastase substrate MeOSuc-AAPV-AMC (Bachem, Catalog #I-1270, Torrance, CA) of 100 μM final concentration was then added into the reaction system just before enzyme kinetics were read on PheraSTAR plate reader at excitation of 380 nm and emission of 460 nm with a 3-minutes interval for 30 minutes in total. Slope of fluorescence intensity vs. time representing the Vmax of enzyme activity was calculated with MARS software. % relative inhibition was calculated as: […]
as §1
(§3) Human sputum was purchased from Discovery Life Sciences (Los Osos, CA). Human sputum was diluted 1:10 in volume with assay buffer (100 mM HEPES, 500 mM NaCl, 0.02% Tween 20) followed by vigorous vortexing. The 1:10 diluted human sputum was further diluted into 1:30, 1:90, 1:270, 1:810, and 1:2430. The elastase concentration was determined by elastase inhibition assay as described above. Specifically, a series of standards of human neutrophil elastase (starting at 2 μg/mL and further diluted 1:2 in volume) were prepared in the assay buffer. The samples and standards were plated in a 384-well black solid bottom plate; the substrate MeOSuc-AAPV-AMC of 100 μM final concentration was then added into the reaction system just before enzyme kinetics were read on PheraSTAR plate reader as mentioned above. The slope of enzymatic kinetic reading was calculated by MARS software. The elastase levels of the human sputum were calculated based on the standard curve.

Another data set can be described thus: Kinetic Solubility Test. Type of data set: physicochemical. The conditions noted are these: for solubility kinetic at 24 h: aqueous buffer, kinetic from dmso stock, phosphate buffer pH 6.8, 24 h; for Kinetic solubility (pH 6.8): summary table. As for the experimental part:
The stock solution of each compound (10 μL; 10 mM in DMSO) was diluted with phosphate buffer solution (490 μL; 50 mM, pH 6.8). The resulting mixture was shaken for 24 h. Samples were then filtered.

For data set [5], the target named is elastase in CF patient sputum (Homo sapiens (Human), UniProt P08246). The data set is described as follows: Elastase inhibition assay in CF patient sputum. Type of data set: biochemical. The conditions noted are these: for IC50 / LipE: CF sputum; for inhibitory activity in patient sputum versus purified HNE (in words): sputum samples of CF and COPD patients. As for the experimental part: as §2, §1, §3
Chain of elastase in CF patient sputum (P08246 30-267): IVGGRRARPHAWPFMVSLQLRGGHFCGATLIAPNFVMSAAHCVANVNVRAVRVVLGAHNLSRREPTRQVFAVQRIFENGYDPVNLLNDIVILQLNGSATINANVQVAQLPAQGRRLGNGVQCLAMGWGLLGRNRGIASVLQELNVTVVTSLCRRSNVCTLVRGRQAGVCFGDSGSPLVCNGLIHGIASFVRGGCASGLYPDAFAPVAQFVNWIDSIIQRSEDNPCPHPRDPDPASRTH

The mark [6] stands for this setting: 5 min incubation with inhibitor.
Where [7] appears, read: 15 min incubation with inhibitor.
The mark [8] stands for this setting: 30 min incubation with inhibitor.
[9] abbreviates: 60 min incubation with inhibitor.

T1 sequence (P08246 30-247): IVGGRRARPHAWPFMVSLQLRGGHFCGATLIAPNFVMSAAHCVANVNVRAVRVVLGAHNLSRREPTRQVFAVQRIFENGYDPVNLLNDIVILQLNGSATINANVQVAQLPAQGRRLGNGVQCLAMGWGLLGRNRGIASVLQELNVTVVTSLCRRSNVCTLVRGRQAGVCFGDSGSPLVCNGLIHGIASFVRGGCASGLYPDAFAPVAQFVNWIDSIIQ
Chain of elastase in COPD patient sputum (P08246 30-267): as the sequence (P08246 30-267) above

In general, CLint scaled refers to the rate of metabolic loss divided by the concentration. Read a high CLint scaled as faster metabolism. The half-life is how long it takes for the measured level to halve. A low value points to rapid decline. The microsomal CLint is the rate of metabolic loss divided by the concentration. Usually IC50 stands for the point on the concentration scale where inhibition reaches its midpoint. In general, Ki refers to the equilibrium dissociation constant of an inhibitor or competing ligand from its target. Low values mean tighter binding, high ones weaker binding. The term solubility (kinetic) denotes solubility judged after dilution from a stock solution rather than from solid. In the case of `CC(C)[C@H](NC(=O)[C@@H]1CCCN1C(=O)[C@@H](NC(=O)c1ccc(C(=O)NS(=O)(=O)c2ccc(Cl)cc2)cc1)C(C)C)B(O)O` [Compound 51, (1-((S)-1-((4-(((4-chlorophenyl)sulfonyl)carbamoyl)benzoyl)-L-valyl)pyrrolidine-2-carboxamido)-2-methylpropyl)boronic acid], in “in vitro”, the Extraction ratio is below 0.3, the “Microsomal stability (Mouse ER)” value is given as below 0.3, the “Remaining (*NCF = 60min)” value came out at 95.0% and the “Remaining (T = 60 min)” value was 85.8%. In the data set “in vitro”, this molecule showed an intrinsic metabolic clearance (CLint scaled) at 1 μM below 38 mL/min/kg, a half-life at 1 μM above 145 min and a microsomal CLint at 1 μM below 9.6 µL/min/mg. Also, in data set [1], the “inhibitory activity against HNE (in words)” value was “substantially enhanced potency”, the LipE is recorded as 7.33 and the IC50 was 0.03 nM. Besides, the “inhibitory activity against HNE (in words)” value in data set [1] (listed as mCBK 320) was “highly potent”. Moreover, the Ki in data set [2] turned out to be 0.034 nM. This molecule registered an IC50 in data set [3] (setting [6]) of 0.027 nM. In data set [3] (setting [7]), this molecule gave a half-maximal inhibitory concentration (IC50) of 0.03 nM. In addition, the IC50 in data set [3] (setting [8]) came out at 0.037 nM. The IC50 in data set [3] (setting [9]) is 0.026 nM. In data set [4], this molecule showed a 50% inhibitory concentration (IC50) of 0.0223 ± 0.0006 nM and a LipE of 7.46. In addition, in the data set “Kinetic Solubility Test”, the kinetic solubility at 24 h was > 127 µg/mL and > 200 µM; the “Kinetic solubility (pH 6.8)” value is above 200 μm. In data set [5], the midpoint of inhibition, the IC50, lay at 0.096 ± 0.002 nM; the LipE worked out at 6.83; the “inhibitory activity in patient sputum versus purified HNE (in words)” value is “retained much of their inhibitory activities”.
As to `CC(C)[C@H](NC(=O)[C@@H]1CCCN1C(=O)[C@@H](NC(=O)c1ccc(C(=O)NCC(=O)O)cc1)C(C)C)B(O)O` [Compound 52, (4-(((2S)-1-((2S)-2-((1-borono-2-methylpropyl)carbamoyl)pyrrolidin-1-yl)-3-methyl-1-oxobutan-2-yl)carbamoyl)benzoyl)glycine], in “in vitro”, the Extraction ratio is given as below 0.3, the “Microsomal stability (Mouse ER)” value is listed as below 0.3, the “Remaining (*NCF = 60min)” value was found to be 103.6% and the “Remaining (T = 60 min)” value amounted to 78.9%. In “in vitro”, this molecule came in with a CLint scaled at 1 μM below 38 mL/min/kg, a half-life at 1 μM above 145 min and a microsomal CLint at 1 μM below 9.6 µL/min/mg. In data set [1], the LipE worked out at 10.1 and the concentration for half-maximal inhibition (IC50) worked out at 0.015 nM. For the same molecule, in data set [2], the Ki was determined as 0.0037 nM. The IC50 in data set [3] (setting [6]) came to 0.004 nM. The same molecule displayed an IC50 in data set [3] (setting [7]) of 0.0047 nM. Besides, in data set [3] (setting [8]), it took 0.0042 nM to reach half-maximal inhibition (IC50). This molecule also gave an IC50 in data set [3] (setting [9]) of 0.0042 nM. Also, the “change of IC50 with increasing incubation times (in words)” value in data set [3] (between 5-60 minutes) is on record as “remain unchanged”. In data set [4], this molecule came in with an IC50 of 0.0127 ± 0.0008 nM and a LipE of 10.2. In addition, in the data set “Kinetic Solubility Test”, the solubility (kinetic) at 24 h was > 104 µg/mL and > 200 µM; the “Kinetic solubility (pH 6.8)” value is above 200 μm. In addition, in data set [5], the IC50 amounted to 0.043 ± 0.002 nM, the LipE is reported as 9.62 and the “inhibitory activity in patient sputum versus purified HNE (in words)” value is reported as “retained much of their inhibitory activities”.

(Values after patent US12415819B2, “Cu- and Ni-catalyzed decarboxylative borylation reactions” (The Scripps Research Institute, priority 2017, dated 2025).)
